Assay results: the kinase profiling compilation of Christmann-Franck et al. (2016)

What was measured:
Assay in all cases: KINOMEscan competition binding
Settings in all cases: compound 10.0 µM
[1] = target: AAK1 (human) (UniProt Q2M2I8)
[2] = test system: ABL1 (human), P00519 [M351T]
[3] = target: ACVRL1 (human) (UniProt P37023)
[4] = target: ANKK1 (human) (UniProt Q8NFD2)
[5] = target: AURKB (human) (UniProt Q96GD4)
[6] = target: BMPR1A (human) (UniProt P36894)
[7] = target: BMX (human) (UniProt P51813)
[8] = target: CDK5 (human) (UniProt Q00535)
[9] = target: CDK9 (human) (UniProt P50750)
[10] = target: CLK1 (human) (UniProt P49759)
[11] = target: CLK4 (human) (UniProt Q9HAZ1)
[12] = target: CSNK1A1 (human) (UniProt P48729)
[13] = target: CSNK2A1 (human) (UniProt P68400)
[14] = target: DMPK (human) (UniProt Q09013)
[15] = test system: EGFR (human), P00533 [752-759 del]
[16] = target: FLT4 (human) (UniProt P35916)
[17] = target: GRK4 (human) (UniProt P32298)
[18] = target: IKBKB (human) (UniProt O14920)
[19] = target: IKBKE (human) (UniProt Q14164)
[20] = target: JAK1 JH2 pseudokinase (human) (UniProt P23458)
[21] = target: LATS1 (human) (UniProt O95835)
[22] = target: LATS2 (human) (UniProt Q9NRM7)
[23] = target: LIMK2 (human) (UniProt P53671)
[24] = target: MAP3K10 (human) (UniProt Q02779)
[25] = target: MAP4K3 (human) (UniProt Q8IVH8)
[26] = target: MAPK11 (human) (UniProt Q15759)
[27] = target: MAPK15 (human) (UniProt Q8TD08)
[28] = target: MERTK (human) (UniProt Q12866)
[29] = target: MET (human) (UniProt P08581)
[30] = test system: MET (human), P08581 [M1250T]
[31] = target: NTRK1 (human) (UniProt P04629)
[32] = target: NUAK1 (human) (UniProt O60285)
[33] = target: PAK6 (human) (UniProt Q9NQU5)
[34] = test system: PIK3CA (human), P42336 [M1043I]
[35] = test system: PIK3CA (human), P42336 [Q546K]
[36] = target: PIP4K2C (human) (UniProt Q8TBX8)
[37] = target: RIOK1 (human) (UniProt Q9BRS2)
[38] = target: STK32C (human) (UniProt Q86UX6)
[39] = target: STK33 (human) (UniProt Q9BYT3)
[40] = target: TRPM6 (human) (UniProt Q9BX84)
[41] = target: ZAP70 (human) (UniProt P43403)

IKBKE (human), sequence (Q14164 whole entry, looked up): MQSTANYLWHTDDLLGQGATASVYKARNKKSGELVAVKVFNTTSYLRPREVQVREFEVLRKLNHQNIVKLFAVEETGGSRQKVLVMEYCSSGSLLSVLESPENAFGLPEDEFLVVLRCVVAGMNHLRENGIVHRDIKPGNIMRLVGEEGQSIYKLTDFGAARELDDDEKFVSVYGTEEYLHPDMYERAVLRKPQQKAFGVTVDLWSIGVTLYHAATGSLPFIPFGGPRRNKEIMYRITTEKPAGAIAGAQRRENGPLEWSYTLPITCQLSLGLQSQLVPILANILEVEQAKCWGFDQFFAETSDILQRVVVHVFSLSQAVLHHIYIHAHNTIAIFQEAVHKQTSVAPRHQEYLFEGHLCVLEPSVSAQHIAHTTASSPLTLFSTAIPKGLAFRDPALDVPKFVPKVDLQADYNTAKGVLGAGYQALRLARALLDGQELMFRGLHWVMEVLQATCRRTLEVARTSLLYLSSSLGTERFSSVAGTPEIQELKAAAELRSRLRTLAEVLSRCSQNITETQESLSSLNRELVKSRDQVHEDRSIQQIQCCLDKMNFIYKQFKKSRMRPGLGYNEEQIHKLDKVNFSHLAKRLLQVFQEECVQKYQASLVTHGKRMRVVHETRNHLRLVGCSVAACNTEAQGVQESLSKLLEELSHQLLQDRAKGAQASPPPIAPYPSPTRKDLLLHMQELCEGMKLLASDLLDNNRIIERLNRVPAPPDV
MAP3K10 (human), sequence (Q02779 whole entry, looked up): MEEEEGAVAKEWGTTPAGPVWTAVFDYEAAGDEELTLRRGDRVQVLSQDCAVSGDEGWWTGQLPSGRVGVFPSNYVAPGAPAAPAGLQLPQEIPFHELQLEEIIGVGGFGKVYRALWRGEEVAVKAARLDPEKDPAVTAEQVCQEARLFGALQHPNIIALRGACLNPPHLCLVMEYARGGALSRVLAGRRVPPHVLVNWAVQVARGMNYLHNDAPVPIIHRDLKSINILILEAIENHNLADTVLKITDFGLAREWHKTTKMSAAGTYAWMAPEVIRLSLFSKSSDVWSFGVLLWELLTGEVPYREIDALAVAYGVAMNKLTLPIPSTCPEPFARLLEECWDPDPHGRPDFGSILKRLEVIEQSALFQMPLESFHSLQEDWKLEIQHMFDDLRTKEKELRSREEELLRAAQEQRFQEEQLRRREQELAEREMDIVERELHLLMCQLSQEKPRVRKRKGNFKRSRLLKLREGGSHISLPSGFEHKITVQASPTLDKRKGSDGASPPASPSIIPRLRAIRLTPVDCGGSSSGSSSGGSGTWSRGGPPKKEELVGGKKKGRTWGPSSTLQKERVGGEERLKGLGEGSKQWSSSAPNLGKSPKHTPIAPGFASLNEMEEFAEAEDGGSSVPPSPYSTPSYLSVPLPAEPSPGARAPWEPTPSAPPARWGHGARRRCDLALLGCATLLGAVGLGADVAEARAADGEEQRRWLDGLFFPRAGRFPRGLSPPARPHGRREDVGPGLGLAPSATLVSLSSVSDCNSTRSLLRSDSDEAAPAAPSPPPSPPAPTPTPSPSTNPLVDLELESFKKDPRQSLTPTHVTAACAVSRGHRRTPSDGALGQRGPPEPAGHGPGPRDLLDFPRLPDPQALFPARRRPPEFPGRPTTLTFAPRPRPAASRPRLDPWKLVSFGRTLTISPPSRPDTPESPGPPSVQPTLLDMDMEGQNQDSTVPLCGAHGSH
CLK1 (human), sequence (P49759 whole entry, looked up): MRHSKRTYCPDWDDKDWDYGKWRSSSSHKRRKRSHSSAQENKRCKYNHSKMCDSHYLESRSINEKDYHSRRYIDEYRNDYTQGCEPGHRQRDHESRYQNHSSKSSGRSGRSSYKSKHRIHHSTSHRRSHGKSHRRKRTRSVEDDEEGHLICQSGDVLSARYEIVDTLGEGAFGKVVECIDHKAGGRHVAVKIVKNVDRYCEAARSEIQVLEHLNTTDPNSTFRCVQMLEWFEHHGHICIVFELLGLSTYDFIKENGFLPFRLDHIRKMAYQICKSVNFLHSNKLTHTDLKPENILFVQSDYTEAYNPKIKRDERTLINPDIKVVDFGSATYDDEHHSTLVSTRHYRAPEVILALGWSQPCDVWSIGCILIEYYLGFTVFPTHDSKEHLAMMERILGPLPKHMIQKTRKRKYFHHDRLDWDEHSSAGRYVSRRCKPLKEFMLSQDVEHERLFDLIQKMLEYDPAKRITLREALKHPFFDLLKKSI
PIK3CA (human), P42336 [Q546K], sequence (P42336 whole entry Q546K, looked up): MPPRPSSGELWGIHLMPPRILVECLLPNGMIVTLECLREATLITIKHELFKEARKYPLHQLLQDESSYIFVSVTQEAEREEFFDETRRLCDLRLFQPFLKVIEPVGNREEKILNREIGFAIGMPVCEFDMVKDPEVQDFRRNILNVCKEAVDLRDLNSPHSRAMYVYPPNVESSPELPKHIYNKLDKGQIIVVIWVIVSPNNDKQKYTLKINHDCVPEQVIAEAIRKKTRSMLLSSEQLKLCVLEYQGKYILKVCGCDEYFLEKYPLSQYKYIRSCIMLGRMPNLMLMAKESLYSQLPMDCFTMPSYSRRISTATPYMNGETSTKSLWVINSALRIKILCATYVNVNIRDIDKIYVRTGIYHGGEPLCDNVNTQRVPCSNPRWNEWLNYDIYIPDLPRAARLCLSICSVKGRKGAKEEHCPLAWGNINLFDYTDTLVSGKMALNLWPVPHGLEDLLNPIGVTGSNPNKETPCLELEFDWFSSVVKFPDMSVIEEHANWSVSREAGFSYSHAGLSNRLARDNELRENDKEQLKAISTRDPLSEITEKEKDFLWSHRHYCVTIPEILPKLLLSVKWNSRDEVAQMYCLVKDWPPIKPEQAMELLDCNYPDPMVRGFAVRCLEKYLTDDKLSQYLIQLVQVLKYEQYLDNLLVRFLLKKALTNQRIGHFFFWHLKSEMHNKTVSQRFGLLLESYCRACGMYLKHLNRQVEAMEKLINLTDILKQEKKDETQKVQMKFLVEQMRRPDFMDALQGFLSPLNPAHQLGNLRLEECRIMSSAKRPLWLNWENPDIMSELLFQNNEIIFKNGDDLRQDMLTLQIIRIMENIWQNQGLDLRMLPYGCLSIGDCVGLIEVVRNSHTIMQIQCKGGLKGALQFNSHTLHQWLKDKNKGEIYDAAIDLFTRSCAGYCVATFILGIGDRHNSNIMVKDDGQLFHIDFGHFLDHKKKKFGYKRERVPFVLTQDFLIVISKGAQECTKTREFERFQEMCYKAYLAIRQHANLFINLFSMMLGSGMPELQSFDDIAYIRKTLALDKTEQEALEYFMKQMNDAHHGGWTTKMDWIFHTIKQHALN
BMPR1A (human), sequence (P36894 whole entry, looked up): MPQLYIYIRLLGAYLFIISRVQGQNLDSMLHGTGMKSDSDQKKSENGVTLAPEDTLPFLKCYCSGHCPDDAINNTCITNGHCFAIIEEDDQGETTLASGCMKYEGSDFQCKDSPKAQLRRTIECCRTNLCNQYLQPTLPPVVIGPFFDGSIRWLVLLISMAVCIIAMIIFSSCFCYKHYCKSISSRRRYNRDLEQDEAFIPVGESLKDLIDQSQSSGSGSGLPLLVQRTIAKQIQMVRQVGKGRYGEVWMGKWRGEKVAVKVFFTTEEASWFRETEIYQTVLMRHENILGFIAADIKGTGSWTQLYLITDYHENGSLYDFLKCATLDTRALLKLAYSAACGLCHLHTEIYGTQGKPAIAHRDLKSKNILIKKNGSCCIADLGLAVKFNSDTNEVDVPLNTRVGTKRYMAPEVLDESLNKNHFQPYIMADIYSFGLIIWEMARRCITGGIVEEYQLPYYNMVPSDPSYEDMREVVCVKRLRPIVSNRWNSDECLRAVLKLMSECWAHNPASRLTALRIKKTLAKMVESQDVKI
AURKB (human), sequence (Q96GD4 whole entry, looked up): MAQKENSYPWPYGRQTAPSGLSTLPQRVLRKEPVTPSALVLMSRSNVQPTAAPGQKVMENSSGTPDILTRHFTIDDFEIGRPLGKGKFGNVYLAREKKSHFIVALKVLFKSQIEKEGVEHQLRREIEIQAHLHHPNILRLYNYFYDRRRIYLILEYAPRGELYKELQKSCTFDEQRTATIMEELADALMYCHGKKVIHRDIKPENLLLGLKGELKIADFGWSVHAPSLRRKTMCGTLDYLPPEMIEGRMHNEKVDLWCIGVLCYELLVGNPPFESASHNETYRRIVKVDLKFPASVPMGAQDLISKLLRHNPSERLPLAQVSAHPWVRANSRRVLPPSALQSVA
LIMK2 (human), sequence (P53671 whole entry, looked up): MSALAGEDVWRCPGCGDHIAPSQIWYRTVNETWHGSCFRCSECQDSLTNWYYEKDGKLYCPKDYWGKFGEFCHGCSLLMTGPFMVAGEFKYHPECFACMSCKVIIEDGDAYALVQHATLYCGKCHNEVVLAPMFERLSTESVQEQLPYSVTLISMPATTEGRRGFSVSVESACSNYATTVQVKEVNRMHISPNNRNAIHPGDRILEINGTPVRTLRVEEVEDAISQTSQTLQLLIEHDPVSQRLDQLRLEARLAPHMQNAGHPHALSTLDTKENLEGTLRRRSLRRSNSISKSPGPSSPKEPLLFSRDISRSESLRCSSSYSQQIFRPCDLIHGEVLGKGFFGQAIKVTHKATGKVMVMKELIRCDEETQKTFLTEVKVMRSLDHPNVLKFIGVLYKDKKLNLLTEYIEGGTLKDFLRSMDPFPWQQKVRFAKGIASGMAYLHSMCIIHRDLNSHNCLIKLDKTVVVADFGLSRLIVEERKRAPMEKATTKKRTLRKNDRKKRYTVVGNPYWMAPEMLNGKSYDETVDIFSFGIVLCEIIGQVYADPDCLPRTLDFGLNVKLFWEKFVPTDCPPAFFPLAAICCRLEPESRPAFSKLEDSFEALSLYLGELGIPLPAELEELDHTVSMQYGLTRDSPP
PIK3CA (human), P42336 [M1043I], sequence (P42336 whole entry M1043I, looked up): as the sequence (P42336 whole entry Q546K, looked up) above, with K546Q, M1043I counted along it

**Q.** What does the source list for `COc1cc(C(=O)N2CCC(N3CCN(C)CC3)CC2)ccc1Nc1ncc2c(n1)N(C)c1ccccc1C(=O)N2C`?
**A.** kinase still bound, per cent of control [1]: 84%; kinase still bound, per cent of control [2]: 94%; kinase still bound, per cent of control [3]: 100%; kinase still bound, per cent of control [4]: 100%; kinase still bound, per cent of control [5]: 38%; kinase still bound, per cent of control [6]: 100%; kinase still bound, per cent of control [7]: 87%; residual activity [8]: 81%; residual activity [9]: 100%; kinase still bound, per cent of control [10]: 28%; kinase still bound, per cent of control [11]: 54%; kinase still bound, per cent of control [12]: 100%; kinase still bound, per cent of control [13]: 100%; kinase still bound, per cent of control [14]: 100%; kinase still bound, per cent of control [15]: 99%; kinase still bound, per cent of control [16]: 100%; kinase still bound, per cent of control [17]: 86%; kinase still bound, per cent of control [18]: 89%; kinase still bound, per cent of control [19]: 96%; kinase still bound, per cent of control [20]: 92%; kinase still bound, per cent of control [21]: 100%; kinase still bound, per cent of control [22]: 95%; kinase still bound, per cent of control [23]: 100%; kinase still bound, per cent of control [24]: 100%; kinase still bound, per cent of control [25]: 71%; kinase still bound, per cent of control [26]: 60%; kinase still bound, per cent of control [27]: 100%; kinase still bound, per cent of control [28]: 100%; kinase still bound, per cent of control [29]: 100%; kinase still bound, per cent of control [30]: 96%; kinase still bound, per cent of control [31]: 69%; kinase still bound, per cent of control [32]: 47%; kinase still bound, per cent of control [33]: 98%; kinase still bound, per cent of control [34]: 65%; kinase still bound, per cent of control [35]: 91%; kinase still bound, per cent of control [36]: 40%; kinase still bound, per cent of control [37]: 100%; kinase still bound, per cent of control [38]: 100%; kinase still bound, per cent of control [39]: 10%; kinase still bound, per cent of control [40]: 100%; kinase still bound, per cent of control [41]: 79%
